Laboratory results: publication PMC5384962, “First-in-human studies of seletalisib, an orally bioavailable small-molecule PI3Kδ inhibitor for the treatment of immune and inflammatory diseases” (European Journal of Clinical Pharmacology, 2017)
Like-named read-outs stand apart in the source and are kept apart here.

What was measured:
basophil degranulation = test: Study-2 ex vivo basophil degranulation (anti-FcεR1-driven CD63 expression, whole blood); details: Study-2, single dose, by 4 h post-dose on day 1, range across groups
Experimental: Subjects were assessed for basophil degranulation following stimulation at multiple time points, as described in Online Resource S1.
Degranulation of basophils was determined in whole blood by monitoring increased cell surface CD63 expression utilizing flow cytometry in an ex vivo stimulation assay driven by anti-IgE (Study-1) or anti-FcεR1 (Study-2). Briefly, blood was collected in lithium-heparin tubes (BD Biosciences, Oxford, UK) and stimulated with IgE or FcεRI cross-linking antibodies (eBiosciences, Hatfield, UK) for 12 min at 37°C. Following red blood cell lysis by addition of BD FACSlyse (BD Biosciences, Oxford, UK), samples were centrifuged and the supernatant discarded. The cell pellet was washed in PBS and re-suspended in fixative (5% formaldehyde in PBS). CD63 expression was determined on basophils (side-scatter low, CD123+HLA-DR-) and detected by flow cytometry using the BD antibody cocktail containing CD63, CD123, and anti-HLA-DR.

psoriatic lesional skin = test: Study-1 Part-B exploratory PD in subjects with mild-to-moderate psoriasis (lesion scores, lesional skin biopsies); type: in vivo, human; details: six subjects with psoriasis
Experimental: To enable assessment of target engagement, the following exploratory PD assessments were performed at various time points prior to and following study drug administration in those subjects with mild-to-moderate psoriasis. Size and appearance of the psoriatic lesion of interest (selected at screening) were assessed by lesion severity score and lesion area. Total affected area (percentage of BSA) and Physician’s Global Assessment were assessed to evaluate overall disease severity. Histological assessments of skin biopsies (6 mm) were performed by immunofluorescent microscopy of frozen sections of lesional skin, except for haematoxylin and eosin staining and IL-17 staining which were performed on formalin fixed paraffin embedded sections. Numbers of T cells (CD3), Langerhans cells (CD1a), neutrophils (MPO) and dermal dendritic cells (CD11c) were determined.  Fig. 3 Cellular responses in lesional biopsies. Lesional biopsies were taken on days 4 and 14 from each patient, and subsequently fixed, sectioned and, using immunofluorescence, stained for CD11c (dendritic cells), CD1a (Langerhans cells), CD3 (T cells) and myeloperoxidase (MPO; neutrophils). Cells were identified using a nuclear stain. Images acquired on a slide scanner were analysed using Definiens software and, following thresholding, positive cells identified. The number of positive cells per square millimeter was calculated and the fold-change in cell density from baseline was calculated. Data are mean ± SD (placebo, n = 3; treated, n = 6)

[1] = Study-1 Part-A single ascending dose pharmacokinetics (plasma and urine); type: in vivo, human; details: for Fe: fraction excreted in urine; for AUC / AUC(0-t) / Cmax / Vd/F / half-life / Tmax / CL renal: human, oral; for AUC / AUC(0-t) / Cmax / Vd/F / half-life / Tmax: plasma; for Vd/F: read-out: Vz/F; for CL renal: urine and plasma; for Ae(0–t): urine
From the text: These were phase I, randomised, double-blind, placebo-controlled studies designed to evaluate the safety, tolerability, PK and PD profiles of seletalisib following oral administration of single ascending doses and multiple ascending doses. Study-1 was a first-in-human, double-blind (sponsor-, investigator- and subject-blind) study that had two parts: Part-A evaluated seletalisib (single ascending doses) in healthy adults (including evaluation of food effects; Table 1); Part-B evaluated seletalisib (multiple ascending doses) in healthy adults and subjects with mild-to-moderate psoriasis. Study-2 was also a double-blind study of seletalisib (single and multiple ascending doses) in healthy subjects, which investigated higher doses.
Plasma concentrations of seletalisib were measured by high-performance liquid chromatography with tandem mass spectrometry (see Online Resource S1 for further details). The following PK parameters were determined in each study: AUC for seletalisib, maximum observed plasma concentration of seletalisib after a single dose (Cmax) and at steady-state (Cmaxss), time of occurrence of Cmax (tmax, obtained directly from the observed plasma concentration-time curves), minimum observed plasma concentration of seletalisib at steady-state immediately before the next dose would be administered (Ctrough), apparent terminal half-life, apparent volume of distribution after single dosing (Vz/F) and at steady-state (Vzss/F) and apparent total body clearance after single dosing (CL/F) and at steady-state (CLss/F). Accumulation factor based on AUC(0–24) [R(AUC)] and accumulation factor based on Cmax [R(Cmax)] were determined on multiple dose day 14. The following study-specific PK parameters were also determined: Study-1, total amount of seletalisib excreted in urine (Ae), renal clearance (CLr) and fraction of drug excreted in urine; Study-2, AUC(0–10) in BID dose groups, terminal elimination rate constant in plasma (λz), mean residence time (MRT) and linearity factor (LF [AUC(0–24)ss/AUC]).
Methods for the calculation of seletalisib PK parameters are detailed in Online Resource S1.
Seletalisib PK parameters were calculated via non-compartmental analysis methods from the individual concentration-time data using Phoenix WinNonlin version 6.2 (Certara, Princeton, NJ, USA). Urine (Study-1 only) and plasma PK parameters of seletalisib were reported for each subject and summarised by study part and dose group. Geometric mean and percentage geometric coefficient of variation (GeoCV%) were reported for all parameters except for tmax, which was reported using median and range. Dose proportionality for AUC and Cmax at Day_1 (Study-1 [Part-A & Part-B]; Study-2, single ascending dose-Day_1) and at steady state at Day_14 (Study-1 [Part-B]; Study-2, multiple ascending dose-Day_14) was examined via the power model and reported graphically. In Study-1, an assessment of food effect (fed versus fasted) was made for Cmax and AUC from the data for subjects who received the same dose in fed and fasted states in Part-A.

[2] = 15 mg, relative to placebo, lesional biopsies
[3] = Study-1 Part-A, single dose 1 mg fasted, geo mean (GeoCV%)
[4] = Study-1 Part-A, single dose 5 mg fasted, geo mean (GeoCV%)
[5] = Study-1 Part-A, single dose 5 mg fed, geo mean (GeoCV%)
[6] = Study-1 Part-A, single dose 10 mg fasted, geo mean (GeoCV%)
[7] = Study-1 Part-A, single dose 15 mg fasted, geo mean (GeoCV%)
[8] = 1 mg, Study-1 Part-A, single dose 1 mg fasted, geo mean (GeoCV%)
[9] = 5 mg, Study-1 Part-A, single dose 5 mg fasted, geo mean (GeoCV%)
[10] = 5 mg, Study-1 Part-A, single dose 5 mg fed, geo mean (GeoCV%)
[11] = 10 mg, Study-1 Part-A, single dose 10 mg fasted, geo mean (GeoCV%)
[12] = 15 mg, Study-1 Part-A, single dose 15 mg fasted, geo mean (GeoCV%)

Compound: [O-][n+]1cccc(-c2nc3c(Cl)cccc3cc2[C@@H](Nc2ncnc3cccnc23)C(F)(F)F)c1 [Seletalisib, seletalisib]
- inhibition of basophil degranulation (basophil degranulation): 80.3–92.5%
- lesion severity score, total affected area (% BSA), lesion area, Physician’s Global Assessment (psoriatic lesional skin; 15 mg for 14 days): improvements in these parameters were seen in some of the six subjects
- numbers of dermal inflammatory cells (CD3+, CD11c+ and MPO+ cells) (psoriatic lesional skin; [2]): trend towards reduced numbers
- resident Langerhans cells (CD1a+ cells) (psoriatic lesional skin; [2]): return of the resident Langerhans cells
- food effect ([1]; Study-1 Part-A, 5 mg fed (high-fat, high-calorie meal) vs fasted): No clinically significant food effect
- geometric mean fraction of drug excreted in urine ([1]; Study-1 Part-A, parent drug, across dose groups): < 6%
- CL/F [1, 3]: 1.93 (33.4) L/h
- CL/F [1, 4]: 2.19 (34.3) L/h
- CL/F [1, 5]: 1.87 (44.6) L/h
- CL/F [1, 6]: 1.93 (17.3) L/h
- CL/F [1, 7]: 1.93 (25.4) L/h
- Fe [1, 3]: 5.79 (56.6) %
- Fe [1, 4]: 5.37 (35.3) %
- Fe [1, 5]: 4.81 (49.6) %
- Fe [1, 6]: 4.76 (66.0) %
- Fe [1, 7]: 4.59 (33.6) %
- AUC [1, 8]: 518 ng·h/mL
- AUC(0-t) [1, 8]: 473 ng·h/mL
- Cmax [1, 8]: 26.7 ng/mL
- Vd/F [1, 8]: 51.5 L
- half-life ([1]; 1 mg, Study-1 Part-A, single dose 1 mg fasted, geo mean (GeoCV%), read-out: t1/2 (converted)): 18.5 h
- Tmax ([1]; 1 mg, Study-1 Part-A, single dose 1 mg fasted, median (range), read-out: tmax): 1.77 h
- AUC [1, 9]: 2290 ng·h/mL
- AUC(0-t) [1, 9]: 2100 ng·h/mL
- Cmax [1, 9]: 109 ng/mL
- Vd/F [1, 9]: 59.2 L
- half-life ([1]; 5 mg, Study-1 Part-A, single dose 5 mg fasted, geo mean (GeoCV%), read-out: t1/2 (converted)): 18.8 h
- Tmax ([1]; 5 mg, Study-1 Part-A, single dose 5 mg fasted, median (range), read-out: tmax): 2.01 h
- AUC [1, 10]: 2680 ng·h/mL
- AUC(0-t) [1, 10]: 2480 ng·h/mL
- Cmax [1, 10]: 105 ng/mL
- Vd/F [1, 10]: 47.6 L
- half-life ([1]; 5 mg, Study-1 Part-A, single dose 5 mg fed, geo mean (GeoCV%), read-out: t1/2 (converted)): 17.7 h
- Tmax ([1]; 5 mg, Study-1 Part-A, single dose 5 mg fed, median (range), read-out: tmax): 4 h
- AUC [1, 11]: 5170 ng·h/mL
- AUC(0-t) [1, 11]: 4800 ng·h/mL
- Cmax [1, 11]: 279 ng/mL
- Vd/F [1, 11]: 54 L
- half-life ([1]; 10 mg, Study-1 Part-A, single dose 10 mg fasted, geo mean (GeoCV%), read-out: t1/2 (converted)): 19.4 h
- Tmax ([1]; 10 mg, Study-1 Part-A, single dose 10 mg fasted, median (range), read-out: tmax): 1.77 h
- AUC [1, 12]: 7760 ng·h/mL
- AUC(0-t) [1, 12]: 7000 ng·h/mL
- Cmax [1, 12]: 313 ng/mL
- Vd/F [1, 12]: 58.7 L
- half-life ([1]; 15 mg, Study-1 Part-A, single dose 15 mg fasted, geo mean (GeoCV%), read-out: t1/2 (converted)): 21.1 h
- Tmax ([1]; 15 mg, Study-1 Part-A, single dose 15 mg fasted, median (range), read-out: tmax): 3 h
- half-life ([1]; Study-1, range across dose groups, read-out: geometric mean t1/2): 17.7 to 21.1 h
- Tmax ([1]; Study-1 Part-A, single dose, range across fasted treatment groups, read-out: median tmax): 1.8 to 3 h
- CL renal [1, 8]: 1.87 mL/min
- CL renal [1, 9]: 1.95 mL/min
- CL renal [1, 10]: 1.5 mL/min
- CL renal [1, 11]: 1.53 mL/min
- CL renal [1, 12]: 1.48 mL/min
- Ae(0–t) [1, 3]: 0.058 (56.6) mg
- Ae(0–t) [1, 4]: 0.269 (35.3) mg
- Ae(0–t) [1, 5]: 0.241 (49.6) mg
- Ae(0–t) [1, 6]: 0.476 (66.0) mg
- Ae(0–t) [1, 7]: 0.689 (33.6) mg
